PMC11676667, “Pharmacokinetics of Oral Cannabinoid Δ8-Tetrahydrocannabivarin and Its Main Metabolites in Healthy Participants” (Pharmaceuticals, 2024)
Like-named read-outs stand apart in the source and are kept apart here.

Assay: Plasma pharmacokinetics after single oral dose of Δ8-THCV in MCT oil (LC-MS/MS, non-compartmental analysis)
Assay type: in vivo, human
Set-up: Clast (last quantifiable concentration): unit not given here
Conditions: for Clast (last quantifiable concentration) / tlast (time to last quantifiable concentration) / concentration at 0.5 h / concentration at 1 h / concentration at 2 h / concentration at 4 h / concentration at 6 h / concentration at 8 h / AUC(0-t) / Cmax / MRT / Tmax: plasma; for plasma concentration: Predose; for concentration at 0.5 h / concentration at 1 h / concentration at 2 h / concentration at 4 h / concentration at 6 h / concentration at 8 h / AUC(0-t) / Cmax / MRT / Tmax: human; for concentration at 0.5 h / concentration at 1 h / concentration at 2 h / concentration at 4 h / concentration at 6 h / concentration at 8 h: oral; for AUC(0-t) / Cmax / MRT / Tmax: po; for MRT: read-out: MRT (mean residence time); for Tmax: read-out: tmax
In short: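 Healthy participants received single oral Δ8-THCV in MCT oil (50 mg/mL; 12.5-200 mg, or placebo) after a high-fat, high-calorie breakfast, with ≥1-week washout. Plasma (K2EDTA) sampled predose and 0.5-8 h post-dose, assayed by validated LC-MS/MS including metabolites; PK by non-compartmental analysis, sub-LLOQ values set to 0.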

[1] = 100 mg single oral Δ8-THCV in MCT oil, Mean (±SD)
[2] = 100 mg single oral Δ8-THCV in MCT oil, Median (Range)
[3] = 200 mg single oral Δ8-THCV in MCT oil, Mean (±SD)
[4] = 200 mg single oral Δ8-THCV in MCT oil, Median (Range)
[5] = 12.5 mg, 12.5 mg Δ8-THCV dose, Mean (SD, %CV)
[6] = 12.5 mg, 12.5 mg Δ8-THCV dose, Median (IQ Range)
[7] = 25 mg, 25 mg Δ8-THCV dose, Mean (SD, %CV)
[8] = 25 mg, 25 mg Δ8-THCV dose, Median (IQ Range)
[9] = 50 mg, 50 mg Δ8-THCV dose, Mean (SD, %CV)
[10] = 50 mg, 50 mg Δ8-THCV dose, Median (IQ Range)
[11] = 100 mg, 100 mg Δ8-THCV dose, Mean (SD, %CV)
[12] = 100 mg, 100 mg Δ8-THCV dose, Median (IQ Range)
[13] = 200 mg, 200 mg Δ8-THCV dose, Mean (SD, %CV)
[14] = 200 mg, 200 mg Δ8-THCV dose, Median (IQ Range)
[15] = 100 mg, 100 mg single oral Δ8-THCV in MCT oil, Mean (±SD)
[16] = 100 mg, 100 mg single oral Δ8-THCV in MCT oil, Median (Range)
[17] = 200 mg, 200 mg single oral Δ8-THCV in MCT oil, Mean (±SD)
[18] = 200 mg, 200 mg single oral Δ8-THCV in MCT oil, Median (Range)

Structure (SMILES): CCCc1cc(O)c2c(c1)OC(C)(C)[C@@H]1CCC(C)=C[C@@H]21 [Δ9-THCV, Δ9-tetrahydrocannabivarin]
- Clast (last quantifiable concentration) [1]: 1.1 (±0.5)
- tlast (time to last quantifiable concentration) [1]: 4.8 (±1.5)
- Clast (last quantifiable concentration) [2]: 0.8 (0.5–1.9)
- tlast (time to last quantifiable concentration) [2]: 5 (2–6)
- Clast (last quantifiable concentration) [3]: 1.5 (±1)
- tlast (time to last quantifiable concentration) [3]: 6.2 (±2.1)
- Clast (last quantifiable concentration) [4]: 1.4 (0.5–4.1)
- tlast (time to last quantifiable concentration) [4]: 6 (2–8)
- plasma concentration (12.5 mg Δ8-THCV dose, Mean (SD, %CV)): 0 (±0, --) ng/mL
- plasma concentration (12.5 mg Δ8-THCV dose, Median (IQ Range)): 0 (0–0) ng/mL
- plasma concentration (25 mg Δ8-THCV dose, Mean (SD, %CV)): 0 (±0, --) ng/mL
- plasma concentration (25 mg Δ8-THCV dose, Median (IQ Range)): 0 (0–0) ng/mL
- plasma concentration (50 mg Δ8-THCV dose, Mean (SD, %CV)): 0 (±0, --) ng/mL
- plasma concentration (50 mg Δ8-THCV dose, Median (IQ Range)): 0 (0–0) ng/mL
- plasma concentration (100 mg Δ8-THCV dose, Mean (SD, %CV)): 0 (±0, --) ng/mL
- plasma concentration (100 mg Δ8-THCV dose, Median (IQ Range)): 0 (0–0) ng/mL
- plasma concentration (200 mg Δ8-THCV dose, Mean (SD, %CV)): 0 (±0, --) ng/mL
- plasma concentration (200 mg Δ8-THCV dose, Median (IQ Range)): 0 (0–0) ng/mL
- concentration at 0.5 h [5]: 0 ng/mL
- concentration at 0.5 h [6]: 0 ng/mL
- concentration at 1 h [5]: 0 ng/mL
- concentration at 1 h [6]: 0 ng/mL
- concentration at 2 h [5]: 0 ng/mL
- concentration at 2 h [6]: 0 ng/mL
- concentration at 4 h [5]: 0 ng/mL
- concentration at 4 h [6]: 0 ng/mL
- concentration at 6 h [5]: 0 ng/mL
- concentration at 6 h [6]: 0 ng/mL
- concentration at 8 h [5]: 0 ng/mL
- concentration at 8 h [6]: 0 ng/mL
- concentration at 0.5 h [7]: 0 ng/mL
- concentration at 0.5 h [8]: 0 ng/mL
- concentration at 1 h [7]: 0 ng/mL
- concentration at 1 h [8]: 0 ng/mL
- concentration at 2 h [7]: 0 ng/mL
- concentration at 2 h [8]: 0 ng/mL
- concentration at 4 h [7]: 0 ng/mL
- concentration at 4 h [8]: 0 ng/mL
- concentration at 6 h [7]: 0 ng/mL
- concentration at 6 h [8]: 0 ng/mL
- concentration at 8 h [7]: 0 ng/mL
- concentration at 8 h [8]: 0 ng/mL
- concentration at 0.5 h [9]: 0 ng/mL
- concentration at 0.5 h [10]: 0 ng/mL
- concentration at 1 h [9]: 0 ng/mL
- concentration at 1 h [10]: 0 ng/mL
- concentration at 2 h [9]: 0 ng/mL
- concentration at 2 h [10]: 0 ng/mL
- concentration at 4 h [9]: 0 ng/mL
- concentration at 4 h [10]: 0 ng/mL
- concentration at 6 h [9]: 0.1 ng/mL
- concentration at 6 h [10]: 0 ng/mL
- concentration at 8 h [9]: 0 ng/mL
- concentration at 8 h [10]: 0 ng/mL
- concentration at 0.5 h [11]: 0 ng/mL
- concentration at 0.5 h [12]: 0 ng/mL
- concentration at 1 h [11]: 0.1 ng/mL
- concentration at 1 h [12]: 0 ng/mL
- concentration at 2 h [11]: 0.1 ng/mL
- concentration at 2 h [12]: 0 ng/mL
- concentration at 4 h [11]: 0.3 ng/mL
- concentration at 4 h [12]: 0 ng/mL
- concentration at 6 h [11]: 0.3 ng/mL
- concentration at 6 h [12]: 0 ng/mL
- concentration at 8 h [11]: 0 ng/mL
- concentration at 8 h [12]: 0 ng/mL
- concentration at 0.5 h [13]: 0 ng/mL
- concentration at 0.5 h [14]: 0 ng/mL
- concentration at 1 h [13]: 0 ng/mL
- concentration at 1 h [14]: 0 ng/mL
- concentration at 2 h [13]: 0.6 ng/mL
- concentration at 2 h [14]: 0 ng/mL
- concentration at 4 h [13]: 0.9 ng/mL
- concentration at 4 h [14]: 0.7 ng/mL
- concentration at 6 h [13]: 0.7 ng/mL
- concentration at 6 h [14]: 0.6 ng/mL
- concentration at 8 h [13]: 0.6 ng/mL
- concentration at 8 h [14]: 0 ng/mL
- AUC(0-t) [15]: 1.4 ng·h/mL
- Cmax [15]: 1.1 ng/mL
- AUC(0-t) [16]: 1.2 ng·h/mL
- Cmax [16]: 0.9 ng/mL
- MRT [15]: 4.4 h
- Tmax [15]: 4.6 h
- MRT [16]: 4.4 h
- Tmax [16]: 5 h
- AUC(0-t) [17]: 4.8 ng·h/mL
- Cmax [17]: 2 ng/mL
- AUC(0-t) [18]: 4.5 ng·h/mL
- Cmax [18]: 1.7 ng/mL
- MRT [17]: 4.5 h
- Tmax [17]: 4.9 h
- MRT [18]: 4.6 h
- Tmax [18]: 4 h
- number of positive plasma samples (of 504 plasma samples from 15 participants after oral Δ8-THCV): 42
- concentration in representative plasma sample (one subject after oral Δ8-THCV in MCT oil, Figure A1): 2.4 ng/mL
